Experimental data as given in ChEMBL document CHEMBL1132959, “Design of potent dicyclic (1-5/4-10) gonadotropin releasing hormone (GnRH) antagonists” (J Med Chem, 2000).
Blank lines part the entries; values can stand above or below the compound they belong to.

What was measured:
[1] = species: Rattus norvegicus; experiment: Antiovulatory potency at 500 ug/rat expressed as rats ovulating by total no. of rats (5/7); assay type: functional
[2] = target: T1, Gonadotropin-releasing hormone receptor (Rattus norvegicus, UniProt P30969); experiment: Affinity for rat gonadotrophin releasing hormone (GnRH) receptor using HEK293 cells transfected with rat Gonadotropin-releasing hormone receptor; assay type: cell-based; conditions: hek293
T1 sequence (P30969 whole entry): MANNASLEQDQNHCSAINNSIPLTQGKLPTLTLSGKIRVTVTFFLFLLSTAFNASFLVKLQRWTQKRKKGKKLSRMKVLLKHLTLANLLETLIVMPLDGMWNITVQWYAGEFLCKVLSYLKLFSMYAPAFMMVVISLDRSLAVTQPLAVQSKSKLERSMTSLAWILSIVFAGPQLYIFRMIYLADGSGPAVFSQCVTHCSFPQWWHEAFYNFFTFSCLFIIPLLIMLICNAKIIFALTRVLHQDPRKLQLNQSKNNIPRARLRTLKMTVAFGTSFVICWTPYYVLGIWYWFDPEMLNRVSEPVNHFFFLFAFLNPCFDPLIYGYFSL

[3] = species: Rattus norvegicus; experiment: Antiovulatory potency at 2.5 ug/rat expressed as rats ovulating by total no. of rats (4/16); assay type: functional
[4] = species: Rattus norvegicus; experiment: Antiovulatory potency at 5 ug/rat expressed as rats ovulating by total no. of rats (0/5); assay type: functional
[5] = species: Rattus norvegicus; experiment: Antiovulatory potency at 1 ug/rat expressed as rats ovulating by total no. of rats (5/7); assay type: functional
[6] = species: Rattus norvegicus; experiment: Antiovulatory potency at 100 ug/rat expressed as rats ovulating by total no. of rats (5/5); assay type: functional
[7] = species: Rattus norvegicus; experiment: Antiovulatory potency at 250 ug/rat expressed as rats ovulating by total no. of rats (0/5); assay type: functional
[8] = species: Rattus norvegicus; experiment: Antiovulatory potency at 10 ug/rat expressed as rats ovulating by total no. of rats (5/5); assay type: functional
[9] = species: Rattus norvegicus; experiment: Antiovulatory potency at 50 ug/rat expressed as rats ovulating by total no. of rats (0/5); assay type: functional
[10] = species: Rattus norvegicus; experiment: Antiovulatory potency at 25 ug/rat expressed as rats ovulating by total no. of rats (3/7); assay type: functional

Ki [2]: 13 nM
SMILES: CC(=O)N[C@H](Cc1ccc2ccccc2c1)C(=O)N[C@H]1CSSC[C@@H]2NC(=O)[C@H](Cc3ccc(O)cc3)NC(=O)[C@H](CC(=O)NC[C@@H](C(N)=O)NC(=O)[C@@H]3CCCN3C(=O)[C@H](CCCN=C(N)N)NC(=O)[C@H](CC(C)C)NC2=O)NC(=O)[C@@H](Cc2c[nH]c3ccccc23)NC1=O
Ovulating rats [1]: 5

SMILES: CC(=O)N[C@H]1CC(=O)NCC(=O)NCC[C@@H]2NC(=O)[C@H](CC(=O)NC[C@@H](C(N)=O)NC(=O)[C@@H]3CCCN3C(=O)[C@H](CCCN=C(N)N)NC(=O)[C@H](CC(C)C)NC(=O)[C@@H](Cc3ccc4ccccc4c3)NC2=O)NC(=O)[C@@H](Cc2c[nH]c3ccccc23)NC(=O)[C@@H](Cc2ccc(Cl)cc2)NC1=O
Ovulating rats [3]: 4 | Ovulating rats [4]: 0 | Ovulating rats [5]: 5

SMILES: CC(=O)N[C@H](Cc1ccc2ccccc2c1)C(=O)N[C@H](Cc1ccc(Cl)cc1)C(=O)N[C@@H]1CC(=O)NCCC[C@@H](C(=O)N2CCC[C@H]2C(=O)N[C@H](C)C(N)=O)NC(=O)[C@H](CC(C)C)NC(=O)[C@@H](Cc2ccc3ccccc3c2)NC(=O)[C@H](CCCN=C(N)N)NC(=O)[C@H](C)NC1=O
Ovulating rats [6]: 5 | Ovulating rats [7]: 0

SMILES: CC(=O)N[C@H](Cc1ccc2ccccc2c1)C(=O)N[C@H](Cc1ccc(Cl)cc1)C(=O)N[C@@H]1CC(=O)NCCCC[C@@H](C(=O)N2CCC[C@H]2C(=O)N[C@H](C)C(N)=O)NC(=O)[C@H](CC(C)C)NC(=O)[C@@H](Cc2ccc3ccccc3c2)NC(=O)[C@H](CCCN=C(N)N)NC(=O)[C@H](C)NC1=O
Ovulating rats [8]: 5 | Ovulating rats [9]: 0 | Ovulating rats [10]: 3
